The source of these data is publication PMC11432624.

Converted amounts (≈) assume the structure as drawn. “And” between values parts separate entries of the source, which are not always exact repeats. Identical values can stand only once. Like-named read-outs stand apart in the source and are kept apart here. Starred links: 1 amine or outer side, 2 acyl side, 3 side chain; linkers in the order of their positions; H or OH if unused. Positions of bridges follow the written chain, without caps; N, C: chain ends. Non-standard residues stand in square brackets, D forms with d. Residues, ends and D or L forms follow the SMILES beside them. No end group written: not given here. *: point of attachment. hTyr(3S-OH,4S-OH,3'-OSO3H) = N[C@H](C(=O)O)[C@H](O)[C@@H](O)c1ccc(O)c(OS(=O)(=O)O)c1; pTerphenylCO(4''-OnC5H11) = CCCCCOc1ccc(-c2ccc(-c3ccc(C(=O)*)cc3)cc2)cc1; Orn(4R-OH,5R-OH) = O=C([C@H](C[C@@H](O)[C@@H](O)N[*:3])N[*:1])[*:2]; hTyr(3S-OH,4S-OH) = N[C@H](C(=O)O)[C@H](O)[C@@H](O)c1ccc(O)cc1; Pro(3S-OH,4S-Me) = C[C@H]1CN[C@H](C(=O)O)[C@H]1O; X1 = CCCCCOc1ccc(-c2cc(-c3ccc(C(=O)*)cc3)no2)cc1; Gln(3R-OH) = NC(=O)C[C@@H](O)[C@H](N)C(=O)O; Hyp = O=C(O)[C@@H]1C[C@@H](O)CN1

Data set [1] deals with C. albicans ATCC 18804. The data set can be described thus: microbe, parasite or virus in culture. It is filed as cell-based. The source says:
(§1) Antifungal activity of the recombinant peptides was studied against collection strains of Candida albicans ATCC 18804 and ATCC 10231, clinical isolates of C. albicans v47a3 and 9.1, clinical isolates of C. krusei 225/2, C. glabrata 252/2 and C. tropicalis v13a4/2 isolated from the patients with human immunodeficiency virus (HIV) infection and provided by the G.N. Gabrichevsky Research Institute for Epidemiology and Microbiology (Moscow, Russia). C. albicans ATCC 18804 and v47a3, C. krusei 225/2, C. glabrata 252/2 and C. tropicalis v13a4/2 were characterized as sensitive to antimycotics yeast strains, while C. albicans ATCC 10231 and 9.1 were resistant to azoles. C. albicans ATCC 10231 was also resistant to anidulafungin (Supplementary Materials, Tables S4 and S6).
(§2) The study was carried out in Sabouraud broth using 96-well microplates. Yeast cells at a concentration of 4 × 10^4 cells/mL were mixed with equal volumes of two-fold dilutions of peptides in water, starting with a maximum concentration of 32 μM. Control wells without peptides were also used. Microplates were incubated at 30 °C for 24 h after that yeast growth was estimated using an inverted microscope and by measuring the optical density at 630 nm. MIC was defined as minimal peptide concentration, inhibiting fungal growth by 100%. To determine whether the peptides act fungicidal or fungistatic, the contents of the wells of the plate with peptide concentrations equal to MIC and higher were sown on Sabouraud agar and incubated at 37 °C for 24 h. MFC was defined as minimal peptide concentration, ensuring the death of all fungal cells. FI was defined as the fungicide index, equal to the MFC/MIC ratio and indicating the severity of the fungicidal action of the peptide. […] Either 150 mM NaCl, 1.25 mM MgCl2, 1.25 mM CaCl2 or 10% fetal bovine serum (FBS) was added to Sabouraud broth to estimate the influence of various salts and serum on the antifungal activity of peptides tested.

The test system of data set [2] is Candida albicans v47a3. The data set can be described thus: Sensitivity of clinical isolates to conventional antimycotics (broth dilution MIC). The conditions noted are these: V47A3, read-out: MICs. On the technique in general: In broth dilution the organism is exposed to a series of concentrations in liquid medium.
In data set [3] the test system is Candida albicans 9.1. The description is as above. As to conditions: Candida albicans, 9.1, read-out: MICs.
Assay in data set [4]: not given
This is another data set of the same source.

In data set [5] the test system is C. albicans 9.1. It is filed as cell-based. As to conditions: 9.1, 24 h.
Source text: as §1, §2

In data set [6] the test system is C. albicans ATCC 10231. It is filed as cell-based. The conditions noted are these: ATCC 10231, 24 h.
Source text: as §1, §2

The test system of data set [7] is C. albicans v47a. It is filed as cell-based. The conditions noted are these: 24 h.
Source text: as §1, §2

The test system of data set [8] is C. glabrata 252/2. The format is cell-based. The conditions noted are these: 252/2, 24 h.
Source text: as §1, §2

The test system of data set [9] is C. krusei 225/2. The format is cell-based. As to conditions: 225/2, 24 h.
Source text: as §1, §2

For data set [10], the system named is C. tropicalis v13a4/2. The format is cell-based. The conditions noted are these: v13a4/2, 24 h.
Source text: as §1, §2

For data set [11], the target named is pepsin (Sus scrofa, UniProt P00791). As to conditions: 50 ng pepsin per 1 μg peptide, 0.05 M HCl pH~1.3, peptide 0.5 mg/mL, 37 °C, after 2 h, SDS-PAGE densitometry.
Procedure: Gastric digestion was performed using 50 ng of pepsin per 1 μg of acidocin A in 0.05 M HCl (pH~1.3). […] The concentration of the peptide was 0.5 mg/mL in both cases. The reaction mixtures were incubated at 37 °C for 2 h and the aliquots were taken at 5 min, 30 min and 2 h after the start of incubation, immediately mixed with the sample buffer containing 4% SDS, and heated for 5 min at 80 °C to ensure protease inactivation. The degree of proteolysis was monitored by Laemmli SDS-PAGE in 18%T 3%C polyacrylamide gels by applying a volume of the mixture containing 1.5 μg of the peptide per lane.
Data set [12] concerns human red blood cells. Set-up: method as in PMID 36557160. The conditions noted are these: cited from earlier work.

Sequence of pepsin (P00791 60-385): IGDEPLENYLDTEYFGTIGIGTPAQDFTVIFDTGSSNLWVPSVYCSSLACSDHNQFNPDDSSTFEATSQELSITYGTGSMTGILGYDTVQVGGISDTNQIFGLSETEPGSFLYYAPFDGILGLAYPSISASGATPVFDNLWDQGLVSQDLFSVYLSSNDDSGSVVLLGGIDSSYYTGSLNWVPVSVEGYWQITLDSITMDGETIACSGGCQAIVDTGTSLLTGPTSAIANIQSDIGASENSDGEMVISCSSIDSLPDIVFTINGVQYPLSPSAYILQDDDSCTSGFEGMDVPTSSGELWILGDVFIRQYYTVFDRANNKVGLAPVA

Consider `C[C@@H]1[C@H](O)[C@@H](C)/C=C/C=C/C=C/C=C/C=C/C=C/C=C/[C@H](O[C@@H]2O[C@H](C)[C@@H](O)[C@H](N)[C@@H]2O)C[C@@H]2O[C@](O)(C[C@@H](O)C[C@@H](O)[C@H](O)CC[C@@H](O)C[C@@H](O)CC(=O)O[C@H]1C)C[C@H](O)[C@H]2C(=O)O` [Amphotericin B, reference compound], for which the “concentration with fungicidal effect (2 × MIC)” value in [1] (C. albicans ATCC 18804, antifungal activity assay) turned out to be 1 µg/mL. In addition, the MIC came out at 0.5 µg/mL in data set [1] (Candida albicans, ATCC18804, C. albicans ATCC 18804, wells previously blocked with 0.1% BSA, read-out: MIC); 0.5 µg/mL (≈ 0.541 µM) in data set [2]; 1 µg/mL (≈ 1.08 µM) in data set [3].
Turning to `CCCCCOc1ccc(-c2ccc(-c3ccc(C(=O)N[C@H]4C[C@@H](O)[C@@H](O)NC(=O)[C@@H]5[C@@H](O)[C@@H](C)CN5C(=O)[C@H]([C@@H](C)O)NC(=O)[C@H]([C@H](O)[C@@H](O)c5ccc(O)cc5)NC(=O)[C@@H]5C[C@@H](O)CN5C(=O)[C@H]([C@@H](C)O)NC4=O)cc3)cc2)cc1` [Anidulafungin] ({pTerphenylCO(4''-OnC5H11)}-[Orn(4R-OH,5R-OH)]T[Hyp][hTyr(3S-OH,4S-OH)]T[Pro(3S-OH,4S-Me)]; lactam 1-C), the MIC came to 0.03 µg/mL (≈ 0.0263 µM) in data set [2] and 0.06 µg/mL (≈ 0.0526 µM) in [3].
As to `CC[C@H](C)C[C@H](C)CCCCCCCCC(=O)N[C@H]1C[C@@H](O)[C@@H](NCCN)NC(=O)[C@@H]2[C@@H](O)CCN2C(=O)[C@H]([C@H](O)CCN)NC(=O)[C@H]([C@H](O)[C@@H](O)c2ccc(O)cc2)NC(=O)[C@@H]2C[C@@H](O)CN2C(=O)[C@H]([C@@H](C)O)NC1=O` [Caspofungin], the MIC was 0.06 µg/mL (≈ 0.0549 µM) in [2] and 0.12 µg/mL (≈ 0.11 µM) in data set [3].
As to `OC(Cn1cncn1)(Cn1cncn1)c1ccc(F)cc1F` [Fluconazole], the figures for the MIC in [2] and in [3] were 8 µg/mL (≈ 26.1 µM) and 256 µg/mL (≈ 836 µM), respectively.
As to `Nc1[nH]c(=O)ncc1F` [Flucytosine], the MIC in data set [2] and in [3] was 0.06 µg/mL (≈ 0.465 µM) throughout.
Take `CCC(C)n1ncn(-c2ccc(N3CCN(c4ccc(OCC5COC(Cn6cncn6)(c6ccc(Cl)cc6Cl)O5)cc4)CC3)cc2)c1=O` (stereo not drawn) [Itraconazole]: the values for the MIC in [2] and in data set [3] were 0.12 µg/mL (≈ 0.17 µM) and 16 µg/mL (≈ 22.7 µM), respectively.
As for `CCCCCOc1ccc(-c2cc(-c3ccc(C(=O)N[C@H]4C[C@@H](O)[C@@H](O)NC(=O)[C@@H]5[C@@H](O)[C@@H](C)CN5C(=O)[C@H]([C@H](O)CC(N)=O)NC(=O)[C@H]([C@H](O)[C@@H](O)c5ccc(O)c(OS(=O)(=O)O)c5)NC(=O)[C@@H]5C[C@@H](O)CN5C(=O)[C@H]([C@@H](C)O)NC4=O)cc3)no2)cc1` [Micafungin] (X1-[Orn(4R-OH,5R-OH)]T[Hyp][hTyr(3S-OH,4S-OH,3'-OSO3H)][Gln(3R-OH)][Pro(3S-OH,4S-Me)]; lactam 1-C), the MIC in data set [2] worked out at 0.008 µg/mL (≈ 0.0063 µM); in [3] it was 0.015 µg/mL (≈ 0.0118 µM).
The matching figures for `CC[C@@H]([C@H](C)O)n1ncn(-c2ccc(N3CCN(c4ccc(OC[C@@H]5CO[C@@](Cn6cncn6)(c6ccc(F)cc6F)C5)cc4)CC3)cc2)c1=O` [Posaconazole]: 0.12 µg/mL (≈ 0.171 µM) and 8 µg/mL (≈ 11.4 µM).
As to `C[C@@H](c1ncncc1F)[C@](O)(Cn1cncn1)c1ccc(F)cc1F` [Voriconazole], the MIC in data set [2] came out at 0.5 µg/mL (≈ 1.43 µM); in data set [3], 8 µg/mL (≈ 22.9 µM).
“KTHYPTNAWKSLWKGFWESLRYTDGF [Acidocin 8912]”: the Random is 28.9% and 31.2% and 20.3%. Also, in data set [4], the β-Turn was 23.9% and 17% and 22.4%. In [1] (ATCC 18804, 24 h), this compound showed an MFC of over 32 µM and an MIC of 32 µM. In addition, in [5], the MFC was found to be 32 µM and the MIC is 16 µM. In [6], this compound gave an MFC of 32 µM and an MIC of 16 µM. Moreover, in data set [7], the MFC was over 32 µM and the MIC amounted to 16 µM. In data set [8], this compound showed an MFC of 16 µM and an MIC of 16 µM. Besides, in [9], the MFC stood at 32 µM and the MIC is 32 µM. In [10], the MFC was 16 µM and the MIC was 16 µM.
Consider “KTYYGTNGVHCTKKSLWGKVRLKNVIPGTLCRKQSLPIKQDLKILLGWATGAFGKTFH (disulfide 11-31) [Acidocin A]”, for which the Random (cited from earlier work) is 28.6% and 37.9% and 28.8%. For the same compound, the β-Turn in data set [4] (cited from earlier work) was 20.3% and 19.2% and 22.6%. In addition, the MFC came to 8 µM in [1] (ATCC 18804, 24 h); 16 µM in data set [5]; 16 µM in data set [6]; 4 µM in data set [7]; 4 µM in data set [8]; 8 µM in data set [9]. In addition, the MFC in [10] was determined as 4 µM. Also, the MIC in [1] (ATCC 18804, 24 h) stood at 4 µM; in data set [5], 4 µM; in [6] it was 8 µM; in [7], 4 µM; in [8], 4 µM; in [9], 8 µM. This compound also had an MIC in data set [10] of 4 µM. In addition, the “resistance to pepsin (amount remaining)” value in [11] is on record as “more than half of the initial amount was retained”. Also, the HC10 in data set [12] is over 128 µM.
